From paper PMC4955970, “Stable, synthetic analogs of diadenosine tetraphosphate inhibit rat and human P2X3 receptors and inflammatory pain” (Molecular Pain, 2016) come the findings set out here.

“Also recorded” adds a separate entry of the source. Where two headings read alike, the source gives them in different places.

Assay [1] addresses T1, native P2X3Rs in TG neurons (Rattus norvegicus, UniProt P49654).
T1 construct: endogenous in cells; host or cells: cultured rat trigeminal ganglion (TG) or dorsal root ganglion (DRG) neurons
T1 sequence (P49654 1-397): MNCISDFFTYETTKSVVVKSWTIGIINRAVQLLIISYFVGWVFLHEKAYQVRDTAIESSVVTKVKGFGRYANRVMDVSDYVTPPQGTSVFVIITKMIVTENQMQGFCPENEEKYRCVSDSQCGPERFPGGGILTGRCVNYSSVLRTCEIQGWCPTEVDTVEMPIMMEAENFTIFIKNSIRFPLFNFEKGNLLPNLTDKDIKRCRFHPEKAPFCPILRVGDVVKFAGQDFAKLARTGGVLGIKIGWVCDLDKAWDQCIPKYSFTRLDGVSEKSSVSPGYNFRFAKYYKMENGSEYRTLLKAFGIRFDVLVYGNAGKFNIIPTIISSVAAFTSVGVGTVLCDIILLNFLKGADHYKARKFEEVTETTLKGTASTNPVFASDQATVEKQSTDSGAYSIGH
T1 sequence (P49653 1-472 partner): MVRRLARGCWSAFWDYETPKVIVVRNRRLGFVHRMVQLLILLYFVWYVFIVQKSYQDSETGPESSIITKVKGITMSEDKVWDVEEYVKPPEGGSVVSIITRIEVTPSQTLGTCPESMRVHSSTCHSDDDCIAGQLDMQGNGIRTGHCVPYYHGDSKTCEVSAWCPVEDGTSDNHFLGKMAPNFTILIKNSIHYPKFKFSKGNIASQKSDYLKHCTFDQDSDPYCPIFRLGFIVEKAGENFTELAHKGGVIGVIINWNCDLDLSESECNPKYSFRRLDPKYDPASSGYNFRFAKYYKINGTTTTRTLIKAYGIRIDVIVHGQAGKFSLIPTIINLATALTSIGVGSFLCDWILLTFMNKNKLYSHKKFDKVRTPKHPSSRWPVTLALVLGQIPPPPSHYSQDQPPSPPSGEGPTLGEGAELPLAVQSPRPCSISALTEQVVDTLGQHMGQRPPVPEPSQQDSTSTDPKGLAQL
In words: Whole-cell recording of α,β-meATP currents in cultured trigeminal ganglion (TG) neurons. Type of assay: cell-based. The note with it: read-out: inhibition of sustained residual component in TG neurons. As for the experimental part:
(§1) Rat trigeminal, nodose, or dorsal root ganglion (TG, NG, and DRG, respectivley) neurons in culture were prepared as described previously.[46],[47] Neurons were plated on poly-L-lysine (0.2 mg/ml)-coated Petri dishes and cultured for one to two days under an atmosphere containing 5% CO2. Cells were used within two days of plating when they lacked processes. HEK293T cells were prepared as reported previously[32],[48] and transfected with rat or human full-length P2X3 cDNA subcloned into pIRES2-EGFP (Clontech, Mountain View, CA, USA).
(§2) TG, NG, DRG, or HEK cells were recorded in the whole-cell configuration while being continuously superfused (at 2 ml/min) with control solution containing (in mM): 152 NaCl, 5 KCl, 1 MgCl2, 2 CaCl2, 10 glucose, and 10 HEPES; pH was adjusted to 7.4 with NaOH and osmolarity was adjusted to 320 mOsM with glucose. […] Responses to selective P2X3R agonist α,β-methylene-ATP (α,β-meATP; resistant to ectoATPase hydrolysis, Sigma-Aldrich) were measured using an EPC-9 amplifier operated by HEKA Patch Master software (HEKA Electronik, Germany). Cells were voltage-clamped at −70 mV. In most cells, series resistance was compensated by 80%. To determine EC50 values, dose-response curves were constructed for α,β-meATP by administering different agonist doses same cells and fitting data to a logistic equation (Origin 8.0, Microcal, Northampton, MA). […]

The target of assay [2] is T2, native P2X3Rs in TG neurons (Rattus norvegicus, UniProt P49654).
T2 construct: endogenous in cells; host or cells: cultured rat trigeminal ganglion (TG) or dorsal root ganglion (DRG) neurons
T2 sequence (P49654 1-397): T1 sequence (P49654 1-397)
The assay is described as above. In kind it is cell-based. The settings on record: read-out: inhibition of peak currents in TG neurons. As for the experimental part:
as §1, §2

Assay [3] addresses T3, rat P2X2 receptors (Rattus norvegicus, UniProt P49653).
T3 construct: expressed in transfected cells; host or cells: HEK293
T3 sequence (P49653 1-472): T1 sequence (P49653 1-472 partner)
In words: Whole-cell patch clamp on HEK293 cells expressing rat P2X2 receptors (ATP-induced currents). Type of assay: cell-based. The note with it: 1 µM; 10 µM ATP every 2 min.

Assay [4] concerns the target T4, rat P2X4 receptors (Rattus norvegicus, UniProt P51577).
T4 construct: expressed in transfected cells; host or cells: HEK293
T4 sequence (P51577 1-388): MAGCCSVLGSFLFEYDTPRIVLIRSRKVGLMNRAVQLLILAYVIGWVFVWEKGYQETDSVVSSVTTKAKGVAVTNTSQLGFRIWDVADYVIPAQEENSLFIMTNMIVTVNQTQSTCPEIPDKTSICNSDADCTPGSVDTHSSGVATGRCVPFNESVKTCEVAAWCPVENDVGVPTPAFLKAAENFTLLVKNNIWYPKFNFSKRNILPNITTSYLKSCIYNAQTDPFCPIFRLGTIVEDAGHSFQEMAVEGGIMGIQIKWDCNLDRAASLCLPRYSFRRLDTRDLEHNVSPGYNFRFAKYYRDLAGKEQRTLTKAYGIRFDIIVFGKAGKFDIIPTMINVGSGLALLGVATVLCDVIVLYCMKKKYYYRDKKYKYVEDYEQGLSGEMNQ
As to the kind of experiment: Whole-cell patch clamp on HEK293 cells expressing rat P2X4 receptors (ATP-induced currents). Type of assay: cell-based. The note with it: 1 µM; 10 µM ATP every 2 min.

Assay [5] relates to native P2X3Rs / P2X2/3Rs in NG neurons. In words: Whole-cell recording of α,β-meATP currents in cultured nodose ganglion (NG) neurons. In kind it is cell-based, rat. The note with it: 1 µM, 6 min; 10 µM α,β-meATP. As for the experimental part: as §1, §2
The target of assay [6] is T5, native P2X3Rs / P2X2/3Rs in NG neurons (Rattus norvegicus, UniProt P49653+P49654).
T5 construct: effects of AppNHppA on native P2X3Rs in TG, DRG, and NG neurons were investigated; while NG neurons express heteromeric P2X2/3Rs subunits; endogenous in cells; host or cells: cultured rat nodose ganglion (NG) neurons
T5 sequence (P49654 1-397): T1 sequence (P49654 1-397)
T5 sequence (P49653 1-472): T1 sequence (P49653 1-472 partner)
The description is as above. In kind it is cell-based. The note with it: read-out: inhibition of sustained residual component in NG neurons. As for the experimental part:
as §1, §2

In the case of `Nc1ncnc2c1ncn2[C@@H]1O[C@H](COP(=O)(O)OP(=O)(O)NP(=O)(O)OP(=O)(O)OC[C@H]2O[C@@H](n3cnc4c(N)ncnc43)[C@H](O)[C@@H]2O)[C@@H](O)[C@H]1O` [AppNHppA, diadenosine 5′,5′′′-P^1,P^4-(β,γ-imido)tetraphosphate], the figures for the inhibition at 1 µM in assay [1], in assay [2] and in assay [6] were 15 ± 6%, 80.3 ± 4.4% and 2 ± 4%, respectively. Further, the “HAD or partial agonism effect on P2X2R-mediated currents” value in assay [3] is recorded as “did not produce any HAD or partial agonism effects; also recorded: does not inhibit”. In addition, the “HAD or partial agonism effect on P2X4R-mediated currents” value in assay [4] is reported as “did not produce any HAD or partial agonism effects; also recorded: does not inhibit”. Moreover, the “inhibition of peak currents in NG neurons” value in assay [5] amounted to 16.8 ± 11.8%.
